{"source": "patent US9757316B2", "about": "“Zinc-lysine complex” (Colgate-Palmolive Company, priority 2012, dated 2017)", "key": {"[1]": {"test": "Hydrolysis reaction: pH and turbidity of diluted ZLC solutions before and after aging", "format": "physicochemical", "conditions": "for pH after aging / turbidity after aging (NTU): aged in 37° C. oven over 5 hours; for initial pH / initial turbidity (NTU): before aging; for initial turbidity (NTU): nephelometer", "method": "Hydrolysis reaction: A 185 mg/ml ZLC solution is prepared and diluted several-fold and aged in a 37° C. oven over 5 hours for turbidity studies. […] Turbidity of the solutions is measured using a nephelometer, results being given in nephelometric turbidity units (NTU).\nThe precipitates formed in the 8×, 16× and 32× diluted solutions are collected by centrifugation and identified as crystalline ZnO by PXRD. From the supernatant, a single crystal is grown and shown by X-ray diffraction to be Lysine Monohydrochloride Dihydrate (LysineHCl·2H2O).\nThe mechanism of the ZLC hydrolysis reaction can be expressed as [Zn(Lysine)2Cl]^+Cl^−·2H2O+H2O→ZnO+Lysine·HCl·2H2O"}, "[2]": {"biological_target": "Bovine Serum Albumin (BSA) (Bos taurus, UniProt P02769)", "sequence (P02769 25-607)": "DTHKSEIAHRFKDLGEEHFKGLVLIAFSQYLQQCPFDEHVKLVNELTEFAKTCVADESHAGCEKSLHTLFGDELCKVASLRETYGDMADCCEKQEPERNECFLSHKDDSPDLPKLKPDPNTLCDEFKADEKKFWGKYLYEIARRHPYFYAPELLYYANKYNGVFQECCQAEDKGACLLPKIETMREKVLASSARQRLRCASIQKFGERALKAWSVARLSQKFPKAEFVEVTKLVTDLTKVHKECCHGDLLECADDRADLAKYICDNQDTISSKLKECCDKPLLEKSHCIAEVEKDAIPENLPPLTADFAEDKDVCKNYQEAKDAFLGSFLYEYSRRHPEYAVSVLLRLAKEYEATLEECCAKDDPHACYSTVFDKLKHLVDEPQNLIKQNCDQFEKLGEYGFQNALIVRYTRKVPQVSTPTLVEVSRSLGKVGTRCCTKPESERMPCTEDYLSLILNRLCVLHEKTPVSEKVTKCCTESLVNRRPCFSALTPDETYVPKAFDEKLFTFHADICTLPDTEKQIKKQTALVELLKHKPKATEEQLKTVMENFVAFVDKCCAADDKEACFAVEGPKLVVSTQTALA", "test": "Flocculation: interaction of ZLC with BSA solutions (turbidity, pH, observation)", "format": "physicochemical", "conditions": "for Turbidity (NTU) / observation / pH: ZLC about 15 mg/ml, 5 hours at 37° C.", "method": "Turbidity and pH of solutions are measured 5 hours after the mixtures were placed in a 37° C. oven, and the results are shown in Table 3."}, "[3]": {"conditions": "sample 1: DI water, 0% BSA, initial pH 6.4"}, "[4]": {"conditions": "sample 2: 1% BSA, initial pH 7.2"}, "[5]": {"conditions": "sample 3: 1% BSA, pH adjusted to 5.1"}}}
{"compound": "NCCCCC(N)C(=O)O.NCCCCC(N)C(=O)O.O.O.[Cl-].[Cl-].[Zn+2]", "note": "(centres unmarked) [ZLC, [Zn(C6H14N2O2)2Cl]^+Cl^−]", "values": [{"measurement": "pH after aging", "setting": "[1]; 5.78 mg/ml ZLC solution", "result": 8}, {"measurement": "turbidity after aging (NTU)", "setting": "[1]; 5.78 mg/ml ZLC solution", "result": ">1000", "unit": "NTU"}, {"measurement": "initial pH", "setting": "[1]; 5.78 mg/ml ZLC solution", "result": 8}, {"measurement": "initial turbidity (NTU)", "setting": "[1]; 5.78 mg/ml ZLC solution", "result": 40.1, "unit": "NTU"}, {"measurement": "pH after aging", "setting": "[1]; 11.56 mg/ml ZLC solution", "result": 7.8}, {"measurement": "turbidity after aging (NTU)", "setting": "[1]; 11.56 mg/ml ZLC solution", "result": ">1000", "unit": "NTU"}, {"measurement": "initial pH", "setting": "[1]; 11.56 mg/ml ZLC solution", "result": 7.8}, {"measurement": "initial turbidity (NTU)", "setting": "[1]; 11.56 mg/ml ZLC solution", "result": 14.8, "unit": "NTU"}, {"measurement": "pH after aging", "setting": "[1]; 23.125 mg/ml ZLC solution", "result": 7.7}, {"measurement": "turbidity after aging (NTU)", "setting": "[1]; 23.125 mg/ml ZLC solution", "result": 247.4, "unit": "NTU"}, {"measurement": "initial pH", "setting": "[1]; 23.125 mg/ml ZLC solution", "result": 7.7}, {"measurement": "initial turbidity (NTU)", "setting": "[1]; 23.125 mg/ml ZLC solution", "result": 0.7, "unit": "NTU"}, {"measurement": "pH after aging", "setting": "[1]; 46.25 mg/ml ZLC solution", "result": 7.4}, {"measurement": "turbidity after aging (NTU)", "setting": "[1]; 46.25 mg/ml ZLC solution", "result": 2.8, "unit": "NTU"}, {"measurement": "initial pH", "setting": "[1]; 46.25 mg/ml ZLC solution", "result": 7.4}, {"measurement": "initial turbidity (NTU)", "setting": "[1]; 46.25 mg/ml ZLC solution", "result": 1.5, "unit": "NTU"}, {"measurement": "pH after aging", "setting": "[1]; 92.5 mg/ml ZLC solution", "result": 7}, {"measurement": "turbidity after aging (NTU)", "setting": "[1]; 92.5 mg/ml ZLC solution", "result": 2.6, "unit": "NTU"}, {"measurement": "initial pH", "setting": "[1]; 92.5 mg/ml ZLC solution", "result": 7}, {"measurement": "initial turbidity (NTU)", "setting": "[1]; 92.5 mg/ml ZLC solution", "result": 2.8, "unit": "NTU"}, {"measurement": "pH after aging", "setting": "[1]; 185 mg/ml ZLC solution", "result": 6.8}, {"measurement": "turbidity after aging (NTU)", "setting": "[1]; 185 mg/ml ZLC solution", "result": 4.1, "unit": "NTU"}, {"measurement": "initial pH", "setting": "[1]; 185 mg/ml ZLC solution", "result": 6.8}, {"measurement": "initial turbidity (NTU)", "setting": "[1]; 185 mg/ml ZLC solution", "result": 4.7, "unit": "NTU"}, {"measurement": "stability of the complex upon dilution with water", "setting": "[1]; precipitates of 8×, 16× and 32× diluted solutions identified as crystalline ZnO by PXRD", "result": "disassociates upon dilution"}, {"measurement": "protein flocculation", "setting": "[2]; BSA as protein", "result": "ability to flocculate proteins"}, {"measurement": "Turbidity (NTU)", "setting": "[2]; [3]", "result": 357, "unit": "NTU"}, {"measurement": "observation", "setting": "[2]; [3]", "result": "slightly cloudy"}, {"measurement": "pH", "setting": "[2]; [3]", "result": 8}, {"measurement": "Turbidity (NTU)", "setting": "[2]; [4]", "result": ">1000", "unit": "NTU"}, {"measurement": "observation", "setting": "[2]; [4]", "result": "very cloudy"}, {"measurement": "pH", "setting": "[2]; [4]", "result": 8.2}, {"measurement": "Turbidity (NTU)", "setting": "[2]; [5]", "result": ">1000", "unit": "NTU"}, {"measurement": "observation", "setting": "[2]; [5]", "result": "very cloudy"}, {"measurement": "pH", "setting": "[2]; [5]", "result": 8}]}
